Here are results for six compounds from patent US4260806A, “Carbocyclic thromboxane A2 analogues” (priority 1979, dated 1981).

Like-named read-outs stand apart in the source and are kept apart here.

In one series the test system is cat coronary arteries. In words: constriction of isolated perfused cat coronary arteries (perfusion pressure at constant flow). The class given is cell-based. The method, then:
Thromboxane A2 analogues (up to 4 μl of a 2.5 mM solution in ethanol) were tested for their effects on cat coronary arteries continuously perfused with 10 ml Krebs-Henseleit solution as described below.
Cats of either sex (2.5-3.5 kg) were anesthetized with sodium pentobarbital (30 mg/kg) given intravenously. […] A 20-gauge stainless steel cannula was inserted into the right coronary artery via the coronary ostium. Distal to the cannula, approximately 1 cm of coronary artery was dissected free of surrounding tissue. The section of right coronary artery with the cannula in place was excised from the heart and immediately transferred to a constant flow perfusion apparatus.
The perfusion apparatus consists of a reservoir containing 20 ml of warm (37° C.) oxygenated (95% O2 +5% CO2) K-H solution which bathes the coronary artery and serves as recirculating perfusate. An increase in perfusion pressure signifies […]. Following an initial 1 hr. equilibrium period, vascular responsiveness was established by adding 25 mM KCl. […] Fresh K-H dilutions of stock thromboxane analog concentrations were added to the perfusate reservoir in 0.1-0.2 ml volumes. […] Constriction of the arteries was induced by addition of 15 or 30 nM 9,11-azo-prostaglandinendoperoxide (azo-PGH2), or 1 μM 9,11-methanoepoxy-PGH2.

In series [1] the test system is human platelet-rich plasma. In words: platelet aggregation in citrated human platelet-rich plasma (aggregometer). In kind it is cell-based. The protocol: Platelet aggregation was studied in an aggregometer (Chronolog Corp., Phila., PA) using 0.5 ml citrated human platelet-rich plasma at 35° C. One minute after addition of analogue (up to 2 μl of a 25 mM solution in ethanol) aggregation was initiated by addition of sodium arachidonate (0.3-0.5 mM), ADP (2 μM) collagen (1 μg/ml), epinephrine (50 μM), 9,11-azo-PGH2 (0.1-0.6 μM). The analogues were also tested for their effects on the inhibition of ADP-induced aggregation by 2 nM prostacyclin or 20 nM prostaglandin D2.

Series [2] relates to New Zealand white rabbits. Briefly: effect of CTA2 on intact anesthetized rabbits. In kind it is in vivo, rabbit. The method, then:
To study the effect of CTA2 on intact animals, New Zealand white rabbits 2-3.5 kg were anesthetized with pentobarbital sodium (25 mg/kg) and placed in the supine position. The right femoral and external jugular veins and the left common carotid artery were cannulated with polyethylene catheters. Standard limb needle electrodes were placed subcutaneously for recording the electrocardiogram (ECG). The trachea was cannulated with a glass tube connected to a pressure transducer for the recording of airway pressure. Mean arterial blood pressure (MABP), central venous pressure (CVP), airway pressure, and lead III of the ECG were continuously recorded on a Grass Model 7 oscillographic recorder. Sodium arachidonate (95% pure, Sigma Chamical) at 2.0 mg/kg or CTA2 (125 μg/kg) were injected into the […], and the rabbit observed until death. Two ml blood samples were drawn into 25 mM EDTA just prior to injection of drug and just prior to death for radio-immunoassay of thromboxane B2.

For series [3], the system named is formation of thromboxane B2. In words: formation of thromboxane B2.
For series [4] the following is noted: cited from earlier work.
Series [5] has as its system blood platelet aggregation. The settings on record: literature; cited from earlier work.
The subject of another series is coronary artery. The settings on record: normal and high concentrations; literature; cited from earlier work.

The half-life is the time needed for the level to fall by half in the phase considered.

On to `CCCCC[C@H](O)/C=C/C1CC2CC(C2)C1C/C=C\CCCC(=O)O` (stereo partly drawn) [CTA2, Carbocyclic Thromboxane A2, free acid], for which the “rank order of constrictor potency” value in the series with cat coronary arteries (CTA2 vs azo-PGH2 >9,11-methanoepoxy-PGH2 >9,11 epoxymethano-PGH2 >>PGH2 >>Thromboxane B2) is recorded as “more potent a constrictor”. Moreover, the “vasoconstricting potency compared with natural thromboxane A2” value with cat coronary arteries (cat coronary arteries) was “potencies comparable to those of the natural thromboxane A2”. Further, in the series with cat coronary arteries (concentrations up to 10^-7 M), the “antagonism of the coronary constrictor effects of 9,11-methanoepoxy PGH2” value is reported as “did not antagonize”. In addition, the “constriction (increased perfusion pressure at constant flow)” value in the series with cat coronary arteries (isolated perfused cat coronary arteries) is reported as “dose-dependent constriction”. The “potency relative to 9,11-azo PGH2 (EC20)” value in the series on cat coronary arteries (relative to 9,11-azo PGH2) is listed as 4 times. For the same compound, the “potency relative to the other two PGH2 derivatives (EC20)” value in the series with cat coronary arteries (relative to 9,11-methanoepoxy PGH2 and 9,11-epoxymethano PGH2) is reported as 5-6 times. Also, the “potency relative to TB2, by concentration giving a 20 mm Hg increase in coronary perfusion pressure (EC20)” value in the series with cat coronary arteries (relative to TB2) is 10,000 times. The “inhibition of arachidonic acid induced platelet aggregation” value in series [1] is on record as “potent inhibitor”. Also, the “intrinsic ability to aggregate platelets” value in series [1] is “no intrinsic ability to agreggate plateletes”. For the same compound, the “effect on arachidonic acid induced aggregation” value in series [1] (1-2 μM) is given as “delayed the onset of platelet aggregation without actually inhibiting the magnitude of the overall response”. The “inhibition of platelet aggregation to a variety of prostanoids” value in series [1] (arachidonic acid, 9-11-azo PGH2, 9,11-methanoepoxy PGH2 and 9,11-epoxymethano PGH2) was “very potent inhibitor”. Also, the “prevention of induced platelet aggregation” value is listed as “completely prevented” in series [1] (at 4 to 5 μM) and “only partially protective” in series [1] (lower concentrations, 1 to 4 μM). In addition, the “induction of platelet aggregation in vitro” value in series [1] (up to concentrations of 100 μM) is on record as “failed to induce platelet aggregation”. Besides, in series [2] (anesthetized rabbit, 125 μg/kg intravenously, typical response), the “time of death after injection” value was “nine”. Further, the “sudden cardiac death in rabbits” value in series [2] (severe myocardial ischemia without coronary thrombosis) is listed as “induces sudden cardiac death”. Further, the “inhibition of the formation of thromboxane B2” value in series [3] is reported as “selectively inhibits”.

As for `CCCCC[C@H](O)/C=C/[C@H]1O[C@H]2C[C@H](O2)[C@@H]1C/C=C\CCCC(=O)O` [TA2, thromboxane A2], in series [4] (pH 7.4 and 37° C.), the half-life was 30 s.

Turning to `CCCCCC/C=C/C1C2CC(N=N2)C1C/C=C\CCCC(=O)O` (stereo not drawn) [15-deoxy-9, 11-azo-PGH2], the “effect on platelet aggregation” value in series [5] was “inhibits platelet aggregation”.

Regarding `CCCCC[C@H](O)/C=C/[C@@H]1[C@H]2C/C(=C/CCCC(=O)O)O[C@H]2C[C@H]1O` [prostacyclin, 6,9 α-oxido-11α, 15 α-dihydroxyprosta (Z), 5, E (13)-dienoic acid], the “effect on platelet aggregation” value in series [5] is given as “most potent inhibitor of blood platelet aggregation”. Also, the half-life result in series [4] (physiological conditions) is recorded as “about 2 minutes”.

As for `CCCCCC/C=C/C1C2CC(ON2)C1C/C=C\CCCC(=O)O` (stereo not drawn) [15-deoxy-9,11-epoxyimino-PGH2], the “effect on platelet aggregation” value in series [5] is on record as “inhibits platelet aggregation”.

In the case of `CCCCC[C@@H](O)/C=C/[C@H]1C[C@H]2C[C@@H]([C@@H]1C/C=C\CCCC(=O)O)C2(C)C` [PTA2, pinane thromboxane A2, reference compound], in the series with cat coronary arteries, the “antagonism of the coronary constrictor effects of CTA2” value is “almost completely antagonized”. Also, the “effect on coronary artery contraction” value in the series with coronary artery is on record as “inhibits coronary artery contraction”.
